The source of these data is patent US20230248834A1, “DEGRADATION OF (EGFR) BY CONJUGATION OF EGFR INHIBITORS WITH E3 LIGASE LIGAND AND METHODS OF USE” (BEIGENE, LTD., priority 2020, published 2023).

One test concerns the target T1, EGFR L858R/T790M/C797S (Homo sapiens, UniProt P00533, C797S/L858R/T790M).
T1 construct: expressed in transfected cells; host or cells: BaF3-LTC
As to the kind of experiment: EGFR degradation HTRF assay in BaF3-LTC cells. The test is classed as cell-based. As to conditions: BaF3-LTC (L858R/T790M/C797S), maximum percentage of inhibition (degradation); read-out: BaF3-LTC Dmax (%). The method, then: (§1) BaF3-LTC(L858R/T790M/C797S) cells and BaF3 LC(L858R/C797S) cells are treated with compounds diluted in 0.2% DMSO cell culture medium and incubate for 16 h, 37° C., 5% CO2. the final concentration of compounds in all assay is start with 10 uM, 5-fold dilution, total 8 doses were included.
(§2) After 16 h treatment, add HTRF lysis buffer to each well; seal the plate and incubate 1 hour at room temperature on a plate shaker; Once the cells are lysed, 16 μL of cell lysate are transferred to a PE 384-well HTRF detection plate; 4 μL of pre-mixed HTRF antibodies are added to each well; Cover the plate with a plate sealer, spin 1000 rpm for 1 min, Incubate overnight at room temperature; Read on BMG PheraStar with HTRF protocol (337 nm-665 nm-620 nm).
(§3) The inhibition (degradation) percentage of the compound was calculated by the following equation: Inhibition percentage of Compound=100−100×(Signal−low control)/(High control−low control), wherein signal=each test compound group
(§4) High control=Cell group with added DMSO and without compound, indicating microplate readings without EGFR degradation;
(§5) Dmax is the maximum percentage of inhibition (degradation).
(§6) The IC50 (DC50) value of a compound can be obtained by fitting the following equation
(§7) Y=Bottom+(TOP−Bottom)/(1+((IC50/X)^hillslope))
(§8) Wherein, X and Y are known values, and IC50, Hillslope, Top and Bottom are the parameters obtained by fitting with software. Y is the inhibition percentage (calculated from the equation), X is the concentration of the compound; IC50 is the concentration of the compound when the 50% inhibition is reached. The smaller the IC50 value is, the stronger the inhibitory ability of the compound is. Vice versa, the higher the IC50 value is, the weaker the inhibitory ability of the compound is; Hillslope represents the slope of the fitted curve, generally around 1*; Bottom represents the minimum value of the curve obtained by data fitting, which is generally 0%±20%; Top represents the maximum value of the curve obtained by data fitting, which is generally 100%±20%. The experimental data were fitted by calculating and analyzing with Dotmatics data analysis software.

The target of the next test is T2, EGFR L858R/C797S (Homo sapiens, UniProt P00533, C797S/L858R).
T2 construct: expressed in transfected cells; host or cells: BaF3 LC
T2 sequence (P00533 25-1210 C797S/L858R): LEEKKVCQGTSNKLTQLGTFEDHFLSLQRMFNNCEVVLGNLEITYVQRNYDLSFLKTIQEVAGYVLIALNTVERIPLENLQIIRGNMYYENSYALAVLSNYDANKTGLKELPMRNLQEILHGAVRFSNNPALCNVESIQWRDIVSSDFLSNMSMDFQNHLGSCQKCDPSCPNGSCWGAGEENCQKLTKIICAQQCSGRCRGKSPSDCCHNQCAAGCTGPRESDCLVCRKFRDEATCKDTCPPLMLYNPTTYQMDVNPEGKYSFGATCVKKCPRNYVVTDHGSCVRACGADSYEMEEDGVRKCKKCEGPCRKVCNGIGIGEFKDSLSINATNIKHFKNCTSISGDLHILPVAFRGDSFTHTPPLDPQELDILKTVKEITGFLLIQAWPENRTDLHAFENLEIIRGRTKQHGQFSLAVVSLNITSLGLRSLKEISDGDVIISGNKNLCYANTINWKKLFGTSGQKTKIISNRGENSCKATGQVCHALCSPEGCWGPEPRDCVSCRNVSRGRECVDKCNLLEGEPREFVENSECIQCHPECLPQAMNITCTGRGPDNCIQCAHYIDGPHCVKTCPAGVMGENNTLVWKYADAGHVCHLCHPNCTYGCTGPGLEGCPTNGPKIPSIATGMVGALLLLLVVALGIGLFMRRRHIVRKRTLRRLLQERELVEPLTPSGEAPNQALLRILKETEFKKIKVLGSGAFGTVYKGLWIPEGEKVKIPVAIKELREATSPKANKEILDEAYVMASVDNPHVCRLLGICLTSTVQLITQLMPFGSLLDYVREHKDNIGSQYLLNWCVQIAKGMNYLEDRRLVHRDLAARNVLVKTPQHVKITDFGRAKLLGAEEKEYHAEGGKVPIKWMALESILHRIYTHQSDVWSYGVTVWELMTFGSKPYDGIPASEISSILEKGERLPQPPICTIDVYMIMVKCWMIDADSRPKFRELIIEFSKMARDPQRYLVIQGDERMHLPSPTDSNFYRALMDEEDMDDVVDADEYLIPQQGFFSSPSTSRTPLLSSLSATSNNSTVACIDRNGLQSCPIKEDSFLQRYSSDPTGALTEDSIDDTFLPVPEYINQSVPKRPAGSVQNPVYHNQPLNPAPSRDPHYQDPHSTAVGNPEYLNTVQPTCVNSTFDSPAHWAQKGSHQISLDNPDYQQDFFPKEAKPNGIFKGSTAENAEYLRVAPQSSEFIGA
The experiment in a line: EGFR degradation HTRF assay in BaF3 LC cells. The test is classed as cell-based. As to conditions: BaF3 LC (L858R/C797S), maximum percentage of inhibition (degradation); read-out: BaF3 LC Dmax (%). The method, then: as §1, §2, §3, §4, §5, §6, §7, §8

For orientation: Dmax means the largest share of the target that was removed.

T1 sequence (P00533 25-1210 T790M/C797S/L858R): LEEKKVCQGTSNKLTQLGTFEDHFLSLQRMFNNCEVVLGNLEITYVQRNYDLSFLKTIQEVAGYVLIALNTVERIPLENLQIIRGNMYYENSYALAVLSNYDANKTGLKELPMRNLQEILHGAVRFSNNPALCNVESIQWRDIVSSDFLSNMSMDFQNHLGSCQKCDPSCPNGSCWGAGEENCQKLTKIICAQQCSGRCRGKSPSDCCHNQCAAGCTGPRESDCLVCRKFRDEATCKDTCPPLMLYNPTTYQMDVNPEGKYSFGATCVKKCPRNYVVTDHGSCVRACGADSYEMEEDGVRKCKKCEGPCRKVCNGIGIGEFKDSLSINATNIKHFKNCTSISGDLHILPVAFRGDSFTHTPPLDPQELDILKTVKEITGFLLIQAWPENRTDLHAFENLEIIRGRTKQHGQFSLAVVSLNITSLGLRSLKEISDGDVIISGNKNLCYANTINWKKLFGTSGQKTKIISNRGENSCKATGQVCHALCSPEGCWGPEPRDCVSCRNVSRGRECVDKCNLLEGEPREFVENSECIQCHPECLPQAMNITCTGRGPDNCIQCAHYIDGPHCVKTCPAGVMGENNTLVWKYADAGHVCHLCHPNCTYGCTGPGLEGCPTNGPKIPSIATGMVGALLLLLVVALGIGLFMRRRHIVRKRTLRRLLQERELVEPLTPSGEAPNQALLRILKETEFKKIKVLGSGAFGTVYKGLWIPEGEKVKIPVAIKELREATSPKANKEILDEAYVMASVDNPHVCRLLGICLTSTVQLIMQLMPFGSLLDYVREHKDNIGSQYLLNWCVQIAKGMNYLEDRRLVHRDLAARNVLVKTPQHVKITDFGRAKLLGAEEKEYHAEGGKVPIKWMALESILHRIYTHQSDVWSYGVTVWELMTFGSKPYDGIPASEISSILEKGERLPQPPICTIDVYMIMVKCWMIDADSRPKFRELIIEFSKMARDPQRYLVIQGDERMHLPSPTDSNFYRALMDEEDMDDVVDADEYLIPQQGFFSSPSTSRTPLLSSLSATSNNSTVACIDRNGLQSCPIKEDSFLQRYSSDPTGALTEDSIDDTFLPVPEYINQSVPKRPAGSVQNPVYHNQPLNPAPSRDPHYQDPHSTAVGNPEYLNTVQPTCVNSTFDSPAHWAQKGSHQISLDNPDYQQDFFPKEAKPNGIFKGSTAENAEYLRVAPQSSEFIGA

As for `CCOc1cc(N2CCC(N3CCN(CCc4cc(F)c([C@H]5CCC(=O)NC5=O)c(F)c4)CC3)CC2)c(CC)cc1Nc1ncc(Br)c(Nc2ccc3nc(CC)ccc3c2P(C)(C)=O)n1` [Example 483, (R)-3-(4-(2-(4-(1-(4-((5-bromo-4-((5-(dimethylphosphoryl)-2-ethylquinolin-6-yl)amino)pyrimidin-2-yl)amino)-5-ethoxy-2-ethylphenyl)piperidin-4-yl)piperazin-1-yl)ethyl)-2,6-difluorophenyl)piperidine-2,6-dione], the Dmax worked out at 86.9% at EGFR L858R/T790M/C797S and 83.2% at EGFR L858R/C797S. The like results for `CCc1ccc2c(P(C)(C)=O)c(Nc3nc(Nc4cc(CC)c(N5CCC(N6CCN(CCc7ccc8c(c7)oc(=O)n8C7CCC(=O)NC7=O)CC6)CC5)cc4OC)ncc3Br)ccc2n1` (stereo not shown) [Example 491, 3-(6-(2-(4-(1-(4-((5-bromo-4-((5-(dimethylphosphoryl)-2-ethylquinolin-6-yl)amino)pyrimidin-2-yl)amino)-2-ethyl-5-methoxyphenyl)piperidin-4-yl)piperazin-1-yl)ethyl)-2-oxobenzo[d]oxazol-3(2H)-yl)piperidine-2,6-dione] were, in that order, 92.7% and 94.7%. For the compound `CCc1cc(Nc2ncc(Br)c(Nc3ccc4nc(C)c(F)cc4c3P(C)(C)=O)n2)c(OC)cc1N1CCC(N2CCN(C(=O)[C@@H]3CCN(c4cc(F)c([C@H]5CCC(=O)NC5=O)c(F)c4)C3)CC2)CC1` [Example 488, (R)-3-(4-((R)-3-(4-(1-(4-((5-bromo-4-((5-(dimethylphosphoryl)-3-fluoro-2-methylquinolin-6-yl)amino)pyrimidin-2-yl)amino)-2-ethyl-5-methoxyphenyl)piperidin-4-yl)piperazine-1-carbonyl)pyrrolidin-1-yl)-2,6-difluorophenyl)piperidine-2,6-dione], the greatest degradation seen (Dmax) came out at 96.6% on EGFR L858R/T790M/C797S and 92.8% at EGFR L858R/C797S. As for `CCc1cc(Nc2ncc(Br)c(Nc3ccc4c(=O)n(CC)ncc4c3P(C)(C)=O)n2)c(OC)cc1N1CCC(N2CCN(CCc3cc(F)c([C@H]4CCC(=O)NC4=O)c(F)c3)CC2)CC1` [Example 753, (R)-3-(4-(2-(4-(1-(4-((5-bromo-4-((5-(dimethylphosphoryl)-2-ethyl-1-oxo-1,2-dihydrophthalazin-6-yl)amino)pyrimidin-2-yl)amino)-2-ethyl-5-methoxyphenyl)piperidin-4-yl)piperazin-1-yl)ethyl)-2,6-difluorophenyl)piperidine-2,6-dione], the values for the Dmax at EGFR L858R/T790M/C797S and at EGFR L858R/C797S were 93.2% and 88.9%, respectively. Turning to `CCOc1cc(N2CCC(N3CCN(CCc4c(F)ccc5c4n(CC)c(=O)n5C4CCC(=O)NC4=O)CC3)CC2)c(CC)cc1Nc1ncc(Br)c(Nc2ccc3c(=O)n(CC)ncc3c2P(C)(C)=O)n1` (stereo not shown) [Example 559, 3-(4-(2-(4-(1-(4-((5-bromo-4-((5-(dimethylphosphoryl)-2-ethyl-1-oxo-1,2-dihydrophthalazin-6-yl)amino)pyrimidin-2-yl)amino)-5-ethoxy-2-ethylphenyl)piperidin-4-yl)piperazin-1-yl)ethyl)-3-ethyl-5-fluoro-2-oxo-2,3-dihydro-1H-benzo[d]imidazol-1-yl)piperidine-2,6-dione], the Dmax was found to be 92.4% at EGFR L858R/T790M/C797S and 90.4% on EGFR L858R/C797S. For the compound `CCOc1cc(N2CCC(N3CCN(CCc4cccc5c4n(C)c(=O)n5C4CCC(=O)NC4=O)CC3)CC2)c(CC)cc1Nc1ncc(Br)c(Nc2ccc3nc(CC)ccc3c2P(C)(C)=O)n1` (stereo not shown) [Example 752, 3-(4-(2-(4-(1-(4-((5-bromo-4-((5-(dimethylphosphoryl)-2-ethylquinolin-6-yl)amino)pyrimidin-2-yl)amino)-5-ethoxy-2-ethylphenyl)piperidin-4-yl)piperazin-1-yl)ethyl)-3-methyl-2-oxo-2,3-dihydro-1H-benzo[d]imidazol-1-yl)piperidine-2,6-dione], the results for the Dmax at EGFR L858R/T790M/C797S and on EGFR L858R/C797S were 94.7% and 94%, respectively. `CCOc1cc(N2CCC(N3CCN(CCc4cc(F)c([C@H]5CCC(=O)NC5=O)c(F)c4)CC3)CC2)c(CC)cc1Nc1ncc(Br)c(Nc2cc(F)c3nc(CC)ccc3c2P(C)(C)=O)n1` [Example 486, (R)-3-(4-(2-(4-(1-(4-((5-bromo-4-((5-(dimethylphosphoryl)-2-ethyl-8-fluoroquinolin-6-yl)amino)pyrimidin-2-yl)amino)-5-ethoxy-2-ethylphenyl)piperidin-4-yl)piperazin-1-yl)ethyl)-2,6-difluorophenyl)piperidine-2,6-dione]: the Dmax on EGFR L858R/T790M/C797S and on EGFR L858R/C797S was 87.8% each time. On to `CCc1ccc2c(P(C)(C)=O)c(Nc3nc(Nc4cc(CC)c(N5CCC(N6CCN(CCc7cc(F)c(C8CCC(=O)NC8=O)c(F)c7)CC6)CC5)cc4OC)ncc3Br)ccc2n1` (stereo not shown) [Example 485, 3-(4-(2-(4-(1-(4-((5-bromo-4-((5-(dimethylphosphoryl)-2-ethylquinolin-6-yl)amino)pyrimidin-2-yl)amino)-2-ethyl-5-methoxyphenyl)piperidin-4-yl)piperazin-1-yl)ethyl)-2,6-difluorophenyl)piperidine-2,6-dione], for which the Dmax is 88.5% on EGFR L858R/T790M/C797S and 88.3% on EGFR L858R/C797S. In the case of `CCOc1cc(N2CCC(N3CCN(C(=O)[C@@H]4CCN(c5cc(F)c([C@H]6CCC(=O)NC6=O)c(F)c5)C4)CC3)CC2)c(CC)cc1Nc1ncc(Br)c(Nc2ccc3nc(C)c(F)cc3c2P(C)(C)=O)n1` [Example 577, (R)-3-(4-((R)-3-(4-(1-(4-((5-bromo-4-((5-(dimethylphosphoryl)-3-fluoro-2-methylquinolin-6-yl)amino)pyrimidin-2-yl)amino)-5-ethoxy-2-ethylphenyl)piperidin-4-yl)piperazine-1-carbonyl)pyrrolidin-1-yl)-2,6-difluorophenyl)piperidine-2,6-dione], the Dmax on EGFR L858R/T790M/C797S was determined as 88.6%; on EGFR L858R/C797S, 89.1%. With `CCc1ncc2c(P(C)(C)=O)c(Nc3nc(Nc4cc(CC)c(N5CCC(N6CCN(CCc7cc(F)c([C@H]8CCC(=O)NC8=O)c(F)c7)CC6)CC5)cc4OC)ncc3Br)ccc2n1` [Example 589, (R)-3-(4-(2-(4-(1-(4-((5-bromo-4-((5-(dimethylphosphoryl)-2-ethylquinazolin-6-yl)amino)pyrimidin-2-yl)amino)-2-ethyl-5-methoxyphenyl)piperidin-4-yl)piperazin-1-yl)ethyl)-2,6-difluorophenyl)piperidine-2,6-dione], the figures for the Dmax on EGFR L858R/T790M/C797S and at EGFR L858R/C797S were 85.9% and 92.4%, respectively. Take `CCc1cc(Nc2ncc(Br)c(Nc3ccc4nc(C)ncc4c3P(C)(C)=O)n2)c(OC)cc1N1CCC(N2CCN(C(=O)[C@H]3CN(c4cc(F)c([C@H]5CCC(=O)NC5=O)c(F)c4)CC3(C)C)CC2)CC1` [Example 740, (R)-3-(4-((R)-4-(4-(1-(4-((5-bromo-4-((5-(dimethylphosphoryl)-2-methylquinazolin-6-yl)amino)pyrimidin-2-yl)amino)-2-ethyl-5-methoxyphenyl)piperidin-4-yl)piperazine-1-carbonyl)-3,3-dimethylpyrrolidin-1-yl)-2,6-difluorophenyl)piperidine-2,6-dione]: at EGFR L858R/T790M/C797S, the Dmax came out at 97.2%. Consider `CCOc1cc(N2CCC(N3CCN(CCc4cccc5c4n(CC)c(=O)n5C4CCC(=O)NC4=O)CC3)CC2)c(CC)cc1Nc1ncc(Br)c(Nc2ccc3nc(CC)ncc3c2P(C)(C)=O)n1` (stereo not shown) [Example 737, 3-(4-(2-(4-(1-(4-((5-bromo-4-((5-(dimethylphosphoryl)-2-ethylquinazolin-6-yl)amino)pyrimidin-2-yl)amino)-5-ethoxy-2-ethylphenyl)piperidin-4-yl)piperazin-1-yl)ethyl)-3-ethyl-2-oxo-2,3-dihydro-1H-benzo[d]imidazol-1-yl)piperidine-2,6-dione], for which the greatest degradation seen (Dmax) at EGFR L858R/T790M/C797S was found to be 97.7%.
